From patent US20190160049A1, “2-OXO-1,2-DIHYDROPYRIDINE-3-CARBOXAMIDE COMPOUNDS AND THEIR USE AS DUAL INHIBITORS OF PDK1/AURA” (INTERNATIONAL SOCIETY FOR DRUG DEVELOPMENT S.R.L., priority 2016, published 2019)

Experiments:
U87MG cells = assay: U87MG cell proliferation, MTS assay; type: cell-based; details: 72 h
Method: FIG. 1 illustrates the effects of SA16 on U87MG cell proliferation of example 3 (a). U87MG cells were treated in complete medium with different concentrations of SA16 (1 nM-100 μM) for 72 h. At the end of treatment, cell proliferation was measured using the MTS assay. The data are expressed as a percentage with respect to that of untreated cells (control), which was set to 100%, and are the mean values±SEM of three independent experiments, each performed in duplicate. The significance of the differences was determined with a one-way ANOVA with Bonferroni post-test: * p<0.05, ** p<0.01, *** p<0.001 vs. control cells;
FIG. 2 illustrates the combined inhibition of PDK1 and Aurora A on U87MG cell proliferation of example 3a. U87MG cells were treated in complete medium with different concentrations of MP7, in the presence or absence of Alisertib, for 72 h. At the end of treatment, cell proliferation was measured using the MTS assay. The data are expressed as a percentage with respect to that of untreated cells (control), which was set to 100%, and are the mean values±SEM of three independent experiments, each performed in duplicate. The significance of the differences was determined with a one-way ANOVA with Bonferroni post-test: * p<0.05, *** p<0.001 vs. control cells; ## p<0.01, ### p<0.001 vs. cells treated with MP7 alone; §§ p<0.01, § § § p<0.001 vs. cells treated with Alisertib alone;
To examine the effects of SA16 on U87MG cell growth/survival, U87MG cells were incubated with different concentrations of the compound SA16 (1 nM-10 μM) for 72 h.
In parallel experiments, U87MG proliferation was assessed in the presence of a well-known PDK1 inhibitor MP7, alone or in combination with the Aurora A inhibitor, Alisertib.

[1] = test system: cancer stem cell (CSC) neurospheres obtained from U87MG cells; assay: CSC (GBM stem cell) proliferation, MTS assay; type: cell-based
Method: FIG. 3 illustrates the effects of SA16 on CSC proliferation of example 3b. CSCs were treated in complete neurosphere medium with different concentrations of SA16 (1 nM-100 μM) for seven days. At the end of treatment, cell proliferation was measured using the MTS assay. The data are expressed as a percentage with respect to that of untreated cells (control), which was set to 100%, and are the mean values±SEM of three independent experiments, each performed in duplicate. IC50 value after seven days of treatment were calculated from sigmoid dose-response curve;
FIG. 4 illustrates combined inhibition of PDK1 and Aurora A on CSCs proliferation of example 3b. CSCs were treated in complete medium with different concentrations of MP7, in the presence or absence of Alisertib, for seven days. At the end of treatment, cell proliferation was measured using the MTS assay.
The data are expressed as a percentage with respect to that of untreated cells (control), which was set to 100%, and are the mean values±SEM of three independent experiments, each performed in duplicate. The significance of the differences was determined with a one-way ANOVA with Bonferroni post-test: * p<0.05, *** p<0.001 vs. control cells; ## p<0.01, ### p<0.001 vs. cells treated with MP7 alone; §§ p<0.01, § § § p<0.001 vs. cells treated with Alisertib alone;
The inventors also examined the effects of SA16 compound on cancer stem cell (CSC) neurospheres obtained from U87MG cells.

CSC neurospheres = assay: Sphere-derived cell morphology (neurosphere area, outgrowth of cellular processes); type: cell-based; details: seven days, SA16 10 nM, 1 μM, 10 μM
Method: FIG. 5 illustrates the effects of SA16 on sphere-derived cell morphology of Example 3c. CSCs were treated for seven days with complete NSC medium containing DMSO (control), or SA16 (10 nM, 1 μM, 10 μM) (A) Representative cell micrographs of control and SA16 (10 μM) after seven days of treatment are shown. The area of the culture plates occupied by the spheres (B) and the length of cellular processes (C) were scored after seven days of treatment. The counts represent the mean values±SEM of two independent experiments. The significance of differences was determined with a one-way ANOVA with Bonferroni post-test: * p<0.05, ** p<0.01, *** p<0.001 vs. control cells.
FIG. 7 illustrates the effects of MP7, Alisertib and of their combined treatment on sphere-derived cell morphology of example 3c. CSCs were treated for seven days with complete NSC medium containing DMSO (control), MP7 and/or alisertib (A) Representative cell micrographs after seven days of treatment are shown. The area of the culture plates occupied by the spheres (B) and the length of cellular processes (C) were scored after seven days of treatment. The counts represent the mean values±SEM of two independent experiments. The significance of differences was determined with a one-way ANOVA with Bonferroni post-test: * p<0.05, *** p<0.001 vs. control cells; ## p<0.01 vs. cells treated with MP7 alone; § p<0.05 vs. cells treated with Alisertib alone.
The effects of SA16 on morphology of neurospheres were evaluated by quantifying the area occupied by the cells in culture plates, as well as the outgrowth of cellular processes.
The inventors then evaluated the effects of MP7, Alisertib and of their combination on CSC differentiation. The cells were incubated with […] MP7, alone or in combination with 1.5 μM Alisertib for seven days.

AurA = molecular target: T1, AurA (Homo sapiens, UniProt O14965); assay: FRET-based Z'-LYTE kinase assay against AurA; type: biochemical; details: for IC50 / inhibition at 10 µM: Z'-LYTE assay; for inhibition at 10 µM: 10μM compound
T1 construct: purchased Invitrogen Corporation, Life Technologies
T1 sequence (O14965 1-403): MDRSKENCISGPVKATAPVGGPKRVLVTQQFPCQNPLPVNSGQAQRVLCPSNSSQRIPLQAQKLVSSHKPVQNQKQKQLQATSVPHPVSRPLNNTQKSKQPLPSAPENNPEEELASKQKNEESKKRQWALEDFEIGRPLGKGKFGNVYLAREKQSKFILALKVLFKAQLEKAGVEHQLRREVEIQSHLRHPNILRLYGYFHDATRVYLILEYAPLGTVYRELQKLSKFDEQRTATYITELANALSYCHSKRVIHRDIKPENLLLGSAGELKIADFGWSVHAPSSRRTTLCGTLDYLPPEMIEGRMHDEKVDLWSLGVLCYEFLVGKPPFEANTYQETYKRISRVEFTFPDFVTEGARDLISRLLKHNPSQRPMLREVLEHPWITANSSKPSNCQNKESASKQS
Method: (§1) The compounds of Formula (I) were tested in the biological test named Kinase-specific Z′-LYTE® assay (Invitrogen Corporation, Life Technologies).

PDK1 = molecular target: T2, PDK1 (Homo sapiens, UniProt O15530); assay: FRET-based Z'-LYTE kinase assay against PDK1; type: biochemical
T2 construct: purchased Invitrogen Corporation, Life Technologies
T2 sequence (O15530 1-556): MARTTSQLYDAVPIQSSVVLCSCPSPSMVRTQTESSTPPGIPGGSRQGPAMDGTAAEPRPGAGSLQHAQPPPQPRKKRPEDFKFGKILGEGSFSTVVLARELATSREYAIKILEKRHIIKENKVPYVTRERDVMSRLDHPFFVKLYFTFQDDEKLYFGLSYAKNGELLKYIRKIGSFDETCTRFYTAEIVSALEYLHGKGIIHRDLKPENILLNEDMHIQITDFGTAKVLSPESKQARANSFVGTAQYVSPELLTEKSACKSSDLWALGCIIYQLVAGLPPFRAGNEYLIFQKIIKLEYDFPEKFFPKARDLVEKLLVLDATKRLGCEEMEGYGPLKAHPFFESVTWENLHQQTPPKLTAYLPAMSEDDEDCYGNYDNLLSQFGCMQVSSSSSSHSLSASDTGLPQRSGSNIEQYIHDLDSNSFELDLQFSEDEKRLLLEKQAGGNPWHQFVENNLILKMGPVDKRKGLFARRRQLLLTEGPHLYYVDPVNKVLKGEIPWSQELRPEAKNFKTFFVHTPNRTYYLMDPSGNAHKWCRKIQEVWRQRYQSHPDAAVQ
Method: as §1

| Compound | IC50 (AurA) [nM] | IC50 (PDK1; Z'-LYTE assay) [nM] | also measured |
| --- | --- | --- | --- |
| COc1cc(Nc2ncc3c(n2)-c2ccc(Cl)cc2C(c2c(F)cccc2OC)=NC3)ccc1C(=O)O [Alisertib, 4-{[9-Chloro-7-(2-fluoro-6-methoxyphenyl)-5H-pyrimido[5,4-d][2]benzazepin-2-yl]amino}-2-methoxybenzoic acid] |  |  | effect on U87MG cell proliferation (in words) (U87MG cells): slightly reduced U87MG cell proliferation; effect on CSC proliferation (in words) ([1]; seven days): anti-proliferative effects on CSCs, in a concentration-dependent manner; outgrowth of cellular processes (CSC neurospheres; 1.5 μM Alisertib): modest but significant outgrowth of cellular processes; area occupied by the neurospheres (CSC neurospheres; 2.5 PIM MP7, 1.5 μM Alisertib): reduction in the area occupied by the neurospheres |
| Cc1ccc(C(=O)N[C@@H](C(=O)Nc2ccc3c(c2)/C(=C/c2cnc[nH]2)C(=O)N3)c2ccccc2)c(=O)n1Cc1ccc(F)c(F)c1 [Compound V18, (R,Z)—N-(2-((3-((1H-imidazol-5-yl)methylene)-2-oxoindolin-5-yl)amino)-2-oxo-1-phenylethyl)-1-(3,4-difluorobenzyl)-6-methyl-2-oxo-1,2-dihydropyridine-3-carboxamide] | 69.8 | 148 |  |
| Cc1c(Br)cc(C(=O)N[C@@H](C(=O)Nc2ccc3c(c2)/C(=C/c2cnc[nH]2)C(=O)N3)c2ccccc2)c(=O)n1Cc1ccc(F)c(F)c1 [Compound V118, (R,Z)—N-(2-((3-((1H-imidazol-5-yl)methylene)-2-oxoindolin-5-yl)amino)-2-oxo-1-phenylethyl)-5-bromo-1-(3,4-difluorobenzyl)-6-methyl-2-oxo-1,2-dihydropyridine-3-carboxamide] | 118 | 475 |  |
| Cc1c(Br)cc(C(=O)NCC(=O)Nc2ccc3c(c2)/C(=C/c2cnc[nH]2)C(=O)N3)c(=O)n1Cc1ccc(F)c(F)c1 [Compound V123, (Z)—N-(2-((3-((1H-imidazol-5-yl)methylene)-2-oxoindolin-5-yl)amino)-2-oxoethyl)-5-bromo-1-(3,4-difluorobenzyl)-6-methyl-2-oxo-1,2-dihydropyridine-3-carboxamide] |  | 134 | inhibition at 10 µM (AurA): 52% |
| O=C(CCNC(=O)c1cccn(Cc2ccc(F)c(F)c2)c1=O)Nc1ccc2c(c1)/C(=C/c1cnc[nH]1)C(=O)N2 [DD21, (Z)—N-(3-((3-((1H-imidazol-5-yl)methylene)-2-oxoindolin-5-yl)amino)-3-oxopropyl)-1-(3,4-difluorobenzyl)-2-oxo-1,2-dihydropyridine-3-carboxamide] | 2470 | 103 |  |
| O=C(CCCNC(=O)c1cccn(Cc2ccc(F)c(F)c2)c1=O)Nc1ccc2c(c1)/C(=C/c1cnc[nH]1)C(=O)N2 [DF8, (Z)—N-(4-((3-((1H-imidazol-5-yl)methylene)-2-oxoindolin-5-yl)amino)-4-oxobutyl)-1-(3,4-difluorobenzyl)-2-oxo-1,2-dihydropyridine-3-carboxamide] | 611 | 245 | inhibition of AurA kinase (in words) (AurA): best effects; inhibition of PDK1 kinase (in words) (PDK1): best effects |
| O=C(CNC(=O)c1cccn(Cc2ccc(F)c(F)c2)c1=O)Nc1ccc2c(c1)/C(=C/c1cnc[nH]1)C(=O)N2 [IB35, (Z)—N-(2-((3-((1H-imidazol-5-yl)methylene)-2-oxoindolin-5-yl)amino)-2-oxoethyl)-1-(3,4-difluorobenzyl)-2-oxo-1,2-dihydro pyridine-3-carboxamide] | 289 |  |  |
| O=C1Nc2ccc(NC(=O)[C@H](NC(=O)c3cccn(Cc4ccc(F)c(F)c4)c3=O)c3ccccc3)cc2/C1=C/c1cnc[nH]1 [SA16, (Z)—(R)—N-(2-((3-((1H-imidazol-5-yl)methylene)-2-oxoindolin-5-yl)amino)-2-oxo-1-phenylethyl)-1-(3,4-difluorobenzyl)-2-oxo-1,2-dihydropyridine-3-carboxamide] | 35 |  | maximal percentage of inhibition of U87MG cell proliferation (U87MG cells; 1 nM-10 μM): 49.4±2%; IC50 ([1]; Homo sapiens, U-87 MG, 168 h, seven days of treatment, read-out: IC50 of inhibition of GSC proliferation): 8.33 ± 0.78 nM; maximal percentage of inhibition of GSC proliferation ([1]; seven days of treatment): 80.0±2.0% |
| Cc1ccc(C(=O)NCC(=O)Nc2ccc3c(c2)/C(=C/c2cnc[nH]2)C(=O)N3)c(=O)n1Cc1ccc(F)c(F)c1 [SST200, (Z)—N-(2-((3-((1H-imidazol-5-yl)methylene)-2-oxoindolin-5-yl)amino)-2-oxoethyl)-1-(3,4-difluorobenzyl)-6-methyl-2-oxo-1,2-dihydropyridine-3-carboxamide] | 193 | 103 |  |
| O=C(CNC(=O)c1cc2cccnc2n(Cc2ccc(F)c(F)c2)c1=O)Nc1ccc2c(c1)/C(=C/c1cnc[nH]1)C(=O)N2 [SST201, (Z)—N-(2-((3-((1H-imidazol-5-yl)methylene)-2-oxoindolin-5-yl)amino)-2-oxoethyl)-1-(3,4-difluorobenzyl)-2-oxo-1,2-dihydro-1,8-naphthyridine-3-carboxamide] |  |  | inhibition at 10 µM (AurA): 43%; inhibition at 10 µM (PDK1; 10μM compound, Z'-LYTE assay): 35% |
